Read-outs that look alike come from different tables or passages of the source.
Assays:
PfCRT^Ecu1110 = PfCRT^Ecu1110 (Plasmodium falciparum, UniProt Q9N623, A220S/I356L/K76T/N326D); assay: [3H]CQ uptake into Xenopus oocytes, cis-inhibition by unlabelled solute; format: cell-based
Procedure, shortened: (§1)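 Radioactivity accumulated per oocyte, read by liquid scintillation after 10% SDS lysis, served as the uptake measure. Incubations ran 1.5 h at 27.5 °C in ND96 at pH 5.5, matching digestive-vacuole acidity.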

PfCRT^Dd2 = PfCRT^Dd2 (Plasmodium falciparum, UniProt Q9N623, A220S/I356T/K76T/M74I/N326S/N75E/Q271E/R371I); assay: as above; format: cell-based
Procedure, shortened: as §1

PfCRT = assay: Test of solutes as potential co-substrates for influx of VF-6 via PfCRT into the oocyte; format: cell-based, Plasmodium falciparum; design: key: X: Compounds that have been tested as potential co-substrates but are not required for influx of VF-6 via PfCRT into the oocyte; conditions: X = tested
non-expressing oocytes = assay: cells; format: cell-based, Xenopus laevis; conditions: Xenopus laevis, total [3H]CQ transport; for inhibition at 500 µM: [test solute] = 0.5 mM; for inhibition at 1000 µM: [test solute] = 1 mM; for inhibition at 2000 µM: [test solute] = 2 mM
Procedure, shortened: as §1

PfCRT^3D7 = PfCRT^3D7 (Plasmodium falciparum, UniProt Q8IBZ9); assay: cell-based; format: cell-based; conditions: PfCRT3D7 oocytes, total [3H]CQ transport, normalised to the oocyte type control, read-out: Uptake of [3H]CQ (% PfCRT3D7 control), cis-inhibition
Procedure, shortened: as §1

[1] = read-out: PfCRT-mediated [3H]CQ transport, cis-inhibition (% PfCRTEcu1110 control)
[2] = read-out: Uptake of [3H]CQ (% PfCRTDd2 control), cis-inhibition, PfCRTEcu1110, SEM
[3] = read-out: Uptake of [3H]CQ (% PfCRTEcu1110 control), cis-inhibition
[4] = read-out: [3H]CQ transport (% PfCRTEcu1110 control), cis-inhibition, PfCRTEcu1110, SEM
[5] = read-out: PfCRT-mediated [3H]CQ transport, cis-inhibition (% PfCRTDd2 control)
[6] = read-out: Uptake of [3H]CQ (% PfCRTDd2 control), cis-inhibition
[7] = read-out: Uptake of [3H]CQ (% PfCRTDd2 control), cis-inhibition, PfCRTDd2, SEM
[8] = read-out: [3H]CQ transport (% PfCRTDd2 control), cis-inhibition, PfCRTDd2, SEM
[9] = Oocyte, mean ± SEM, SEM, read-out: Uptake of [3H]CQ (% PfCRTDd2 control), cis-inhibition, non-expressing oocytes
[10] = non-expressing oocytes, normalised to the oocyte type control, read-out: Uptake of [3H]CQ (% non-expressing oocyte control), cis-inhibition

PfCRT^Ecu1110, sequence (Q9N623 whole entry A220S/I356L/K76T/N326D): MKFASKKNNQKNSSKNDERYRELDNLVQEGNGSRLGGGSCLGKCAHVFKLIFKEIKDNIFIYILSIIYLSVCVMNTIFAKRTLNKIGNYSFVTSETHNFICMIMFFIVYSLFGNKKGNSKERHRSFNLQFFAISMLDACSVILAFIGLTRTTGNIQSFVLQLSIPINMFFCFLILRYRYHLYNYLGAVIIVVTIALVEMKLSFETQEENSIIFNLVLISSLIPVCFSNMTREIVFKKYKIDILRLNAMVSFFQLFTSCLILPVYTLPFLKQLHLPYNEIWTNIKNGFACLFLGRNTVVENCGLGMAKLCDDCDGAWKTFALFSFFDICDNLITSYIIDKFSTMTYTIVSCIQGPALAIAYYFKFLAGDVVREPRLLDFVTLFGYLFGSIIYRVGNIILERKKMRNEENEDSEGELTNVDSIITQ
PfCRT^Dd2, sequence (Q9N623 whole entry A220S/I356T/K76T/M74I/N326S/N75E/Q271E/R371I): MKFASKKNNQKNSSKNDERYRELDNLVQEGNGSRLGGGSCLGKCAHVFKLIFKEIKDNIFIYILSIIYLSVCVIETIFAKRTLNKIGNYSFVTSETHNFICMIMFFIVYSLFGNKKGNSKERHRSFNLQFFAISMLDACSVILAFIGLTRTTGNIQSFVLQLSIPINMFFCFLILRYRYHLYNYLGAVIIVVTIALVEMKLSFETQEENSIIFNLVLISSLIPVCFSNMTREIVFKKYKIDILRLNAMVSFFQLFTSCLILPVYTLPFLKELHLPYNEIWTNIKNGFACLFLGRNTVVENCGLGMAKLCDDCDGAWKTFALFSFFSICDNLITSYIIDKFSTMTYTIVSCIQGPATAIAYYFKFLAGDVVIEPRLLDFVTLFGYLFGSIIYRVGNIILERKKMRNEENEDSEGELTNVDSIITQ
PfCRT^3D7, sequence (Q8IBZ9 59-398): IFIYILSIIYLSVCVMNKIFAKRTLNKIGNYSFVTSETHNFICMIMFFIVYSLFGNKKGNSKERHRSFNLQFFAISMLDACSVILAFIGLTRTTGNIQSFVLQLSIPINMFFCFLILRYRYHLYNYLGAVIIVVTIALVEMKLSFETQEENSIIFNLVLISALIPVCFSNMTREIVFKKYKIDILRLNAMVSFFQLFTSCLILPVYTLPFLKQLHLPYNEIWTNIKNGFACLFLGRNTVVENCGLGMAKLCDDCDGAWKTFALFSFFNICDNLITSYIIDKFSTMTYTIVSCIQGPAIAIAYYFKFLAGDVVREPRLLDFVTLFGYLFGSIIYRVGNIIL

Q: For `N=C(N)NCCC[C@H](N)C(=O)O` [L-arginine], which inhibition at 500 µM (PfCRT^Ecu1110; [1]) is on record?
A: The inhibition at 500 µM was 98 ± 2.5%.

Q: And the inhibition at 1000 µM (PfCRT^Ecu1110; [1])?
A: Its inhibition at 1000 µM is 95 ± 3.5%.

Q: What about the inhibition at 2000 µM (PfCRT^Ecu1110; [1]) of the same compound?
A: The inhibition at 2000 µM was 99 ± 1.6%.

Q: What about the inhibition at 500 µM (PfCRT^Ecu1110; [2]) of the same compound?
A: The inhibition at 500 µM was 33 ± 2.4%.

Q: And the inhibition at 1000 µM (PfCRT^Ecu1110; [2])?
A: Its inhibition at 1000 µM is 32 ± 1%.

Q: And the inhibition at 2000 µM (PfCRT^Ecu1110; [2])?
A: The inhibition at 2000 µM was 33 ± 1.4%.

Q: What about the inhibition at 500 µM (PfCRT^Ecu1110; [3]) of the same compound?
A: The inhibition at 500 µM was 100 ± 4.3%.

Q: And the inhibition at 1000 µM (PfCRT^Ecu1110; [3])?
A: The inhibition at 1000 µM was 97 ± 6.2%.

Q: And the inhibition at 2000 µM (PfCRT^Ecu1110; [3])?
A: Its inhibition at 2000 µM is 101 ± 3.6%.

Q: What about the inhibition at 500 µM (PfCRT^Ecu1110; [4]) of the same compound?
A: The inhibition at 500 µM was 30 ± 0.6%.

Q: What about the inhibition at 1000 µM (PfCRT^Ecu1110; [4]) of the same compound?
A: Its inhibition at 1000 µM is 29 ± 0.4%.

Q: What about the inhibition at 2000 µM (PfCRT^Ecu1110; [4]) of the same compound?
A: The inhibition at 2000 µM was 30 ± 0.5%.

Q: What about the inhibition at 500 µM (PfCRT^Dd2; [5]) of the same compound?
A: The inhibition at 500 µM was 99 ± 3.2%.

Q: And the inhibition at 1000 µM (PfCRT^Dd2; [5])?
A: Its inhibition at 1000 µM is 99 ± 2.6%.

Q: What about the inhibition at 2000 µM (PfCRT^Dd2; [5]) of the same compound?
A: The inhibition at 2000 µM was 95 ± 2.4%.

Q: And the inhibition at 500 µM (PfCRT^Dd2; [6])?
A: The inhibition at 500 µM was 101 ± 4.8%.

Q: And the inhibition at 1000 µM (PfCRT^Dd2; [6])?
A: Its inhibition at 1000 µM is 101 ± 5.8%.

Q: And the inhibition at 500 µM (PfCRT^Dd2; [7])?
A: Its inhibition at 500 µM is 101 ± 4.8%.

Q: What about the inhibition at 1000 µM (PfCRT^Dd2; [7]) of the same compound?
A: The inhibition at 1000 µM was 101 ± 5.8%.

Q: And the inhibition at 2000 µM (PfCRT^Dd2; [7])?
A: Its inhibition at 2000 µM is 98 ± 3.5%.

Q: And the inhibition at 500 µM (PfCRT^Dd2; [8])?
A: The inhibition at 500 µM was 99 ± 3.2%.

Q: What about the inhibition at 1000 µM (PfCRT^Dd2; [8]) of the same compound?
A: Its inhibition at 1000 µM is 99 ± 2.6%.

Q: What about the “Tested as potential co-substrate but not required for influx of VF-6 via PfCRT into the oocyte” value (PfCRT) of the same compound?
A: The value was “X”.

Q: And the inhibition at 500 µM (non-expressing oocytes; [9])?
A: Its inhibition at 500 µM is 2.5 ± 0.06%.

Q: What about the inhibition at 1000 µM (non-expressing oocytes; [9]) of the same compound?
A: The inhibition at 1000 µM was 2.7 ± 0.06%.

Q: And the inhibition at 2000 µM (non-expressing oocytes; [9])?
A: Its inhibition at 2000 µM is 2.1 ± 0.1%.

Q: And the inhibition at 500 µM (non-expressing oocytes; [10])?
A: The inhibition at 500 µM was 99 ± 3.7%.

Q: What about the inhibition at 1000 µM (non-expressing oocytes; [10]) of the same compound?
A: Its inhibition at 1000 µM is 99 ± 2.6%.

Q: And the inhibition at 2000 µM (non-expressing oocytes; [10])?
A: Its inhibition at 2000 µM is 98 ± 5.2%.

Q: And the inhibition at 500 µM (PfCRT^3D7; [test solute] = 0.5 mM)?
A: Its inhibition at 500 µM is 100 ± 4.2%.

Q: And the inhibition at 1000 µM (PfCRT^3D7; [test solute] = 1 mM)?
A: Its inhibition at 1000 µM is 99 ± 5.7%.
